Laboratory results as given in paper PMC8518794 (2021).

Key:
[1] = tested on: pApU (poly rA–poly rU; polyAU) (RNA, polymer) A/U; experiment: UV thermal denaturation; settings: Na+ (sodium cacodylate); pH 7; r[compound]/[polynucleotide] = 0.3; error ±0.5 °C; per base
[2] = tested on: pApU (poly rA–poly rU; polyAU) (RNA, polymer) A/U; experiment: fluorimetric titration, Scatchard / McGhee-von Hippel; settings: Na+ (sodium cacodylate); pH 7; sodium cacodylate buffer; r fixed at 0.25; compound 1×10^-7 M; per base
[3] = tested on: pApU (poly rA–poly rU; polyAU) (RNA, polymer) A/U; experiment: fluorimetric titration; settings: Na+ (sodium cacodylate); pH 7; compound 1×10^-7 M; negligible emission change

Row | ΔTm [1] [°C] | log Ks [2] | binding [3] | SMILES
1 | 13.0 | 7.8 |  | Cc1cc(C)c(B(c2c(C)cc(-c3ccc(-c4ccc(-c5cc(C)c(B(c6c(C)cc(C)cc6C)c6c(C)cc([N+](C)(C)C)cc6C)c(C)c5)s4)s3)cc2C)c2c(C)cc([N+](C)(C)C)cc2C)c(C)c1
2 | 5.5 | 7.5 |  | Cc1cc(C)c(B(c2c(C)cc(-c3ccc(-c4ccc(-c5cc(C)c(B(c6c(C)cc([N+](C)(C)C)cc6C)c6c(C)cc([N+](C)(C)C)cc6C)c(C)c5)s4)s3)cc2C)c2c(C)cc([N+](C)(C)C)cc2C)c(C)c1
3 | 0 |  | no | Cc1cc(C)c(B(c2c(C)cc(C)cc2C)c2c(C)cc(-c3ccc(-c4ccc(-c5cc(C)c(B(c6c(C)cc(C)cc6C)c6c(C)cc([N+](C)(C)C)cc6C)c(C)c5)s4)s3)cc2C)c(C)c1
4 | 11.1 | 7.0 |  | Cc1cc(C)c(B(c2c(C)cc(C)cc2C)c2c(C)cc(-c3ccc(-c4ccc(-c5cc(C)c(B(c6c(C)cc([N+](C)(C)C)cc6C)c6c(C)cc([N+](C)(C)C)cc6C)c(C)c5)s4)s3)cc2C)c(C)c1
